US20200024278A1, “COMPOSITION COMPRISING ANTIBIOTIC COMPOUND AND AN HETEROCYCLIC COMPOUND AND THEIR USE IN PREVENTING OR TREATING BACTERIAL INFECTIONS” (MUTABILIS, priority 2016, published 2020)
Where two headings read alike, the source gives them in different places.

Legend:
Assay in all cases: MIC, broth microdilution (CLSI), substance alone or ATB combined with compound at 4 or 8 μg/mL
Assay type in all cases: cell-based, A. baumannii
[1] = system: ABA UFR157
How it was run: (§1)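 Broth microdilution; ca-MHB; 5·10^5 CFU/mL; 35° C, 16-20 h; compound alone or fixed 4/8 μg/mL with antibiotic series; endpoint = no visible growth.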

[2] = system: ABA UFR161
How it was run: as §1

[3] = system: ABA 19606
How it was run: as §1

[4] = system: ABA UFR158
How it was run: as §1

[5] = system: ABA UFR160
How it was run: as §1

[6] = system: ABA UFR153
How it was run: as §1

[7] = system: ABA UFR155
How it was run: as §1

[8] = system: ABA 107292
How it was run: as §1

[9] = system: ABA UFR159
How it was run: as §1

[10] = system: ABA UFR154
How it was run: as §1

[11] = system: ABA UFR151
How it was run: as §1

[12] = Acinetobacter baumannii, substance alone, read-out: MIC
[13] = Acinetobacter baumannii, antibiotic alone, read-out: MIC ATB alone

O=C1N2CC(n3ccnn3)=CC(C2)N1OS(=O)(=O)[O-].[Na+] (stereo not shown) [Example 12, sodium [7-oxo-3-(triazol-1-yl)-1,6-diazabicyclo[3.2.1]oct-3-en-6-yl] sulfate]
MIC ([1]; substance alone): >32 µg/mL | MIC ([2]; substance alone): >32 µg/mL | MIC ([3]; substance alone): 32 µg/mL | MIC ([4]; substance alone): >32 µg/mL | MIC ([5]; substance alone): >32 µg/mL | MIC ([6]; substance alone): >32 µg/mL | MIC ([7]; substance alone): >32 µg/mL | MIC ([8]; substance alone): >32 µg/mL | MIC ([9]; substance alone): >32 µg/mL | MIC ([10]; substance alone): >32 µg/mL | MIC ([11]; substance alone): >32 µg/mL

O=C1N2CC(n3cccn3)=C[C@H](C2)N1OS(=O)(=O)[O-].[Na+] [Example 15, sodium [(5R)-7-oxo-3-pyrazol-1-yl-1,6-diazabicyclo[3.2.1]oct-3-en-6-yl] sulfate]
MIC [1, 12]: > 32 µg/mL | MIC [2, 12]: > 32 µg/mL | MIC [3, 12]: > 32 µg/mL | MIC [4, 12]: > 32 µg/mL | MIC [5, 12]: > 32 µg/mL | MIC [6, 12]: > 32 µg/mL | MIC [7, 12]: > 32 µg/mL | MIC [8, 12]: > 32 µg/mL | MIC [9, 12]: > 32 µg/mL | MIC [10, 12]: > 32 µg/mL | MIC [11, 12]: > 32 µg/mL

CO/N=C(\C(=O)N[C@@H]1C(=O)N2C(C(=O)[O-])=C(C[N+]3(C)CCCC3)CS[C@H]12)c1csc(N)n1 [FEP, Cefepime]
MIC [1, 13]: 32 µg/mL | MIC ATB combined with Example 1 @8 μg/ml ([1]; with Example 1 @8 μg/ml): 8 µg/mL | MIC ATB combined with Example 3 @8 μg/ml ([1]; with Example 3 @8 μg/ml): 4 µg/mL | MIC ATB combined with Example 6 @8 μg/ml ([1]; with Example 6 @8 μg/ml): <0.25 µg/mL | MIC ATB combined with Example 9 @4 μg/ml ([1]; with Example 9 @4 μg/ml): 8 µg/mL | MIC ATB combined with Example 10 @8 μg/ml ([1]; with Example 10 @8 μg/ml): 8 µg/mL | MIC ATB combined with Example 11 @8 μg/ml ([1]; with Example 11 @8 μg/ml): 8 µg/mL | MIC ATB combined with Example 12 @8 μg/ml ([1]; with Example 12 @8 μg/ml): 4 µg/mL | MIC ATB combined with Example 15 @4 μg/ml ([1]; with Example 15 @4 μg/ml): 8 µg/mL | MIC [2, 13]: > 128 µg/mL | MIC ATB combined with Example 1 @8 μg/ml ([2]; with Example 1 @8 μg/ml): >128 µg/mL | MIC ATB combined with Example 3 @8 μg/ml ([2]; with Example 3 @8 μg/ml): >128 µg/mL | MIC ATB combined with Example 6 @8 μg/ml ([2]; with Example 6 @8 μg/ml): >128 µg/mL | MIC ATB combined with Example 9 @4 μg/ml ([2]; with Example 9 @4 μg/ml): >128 µg/mL | MIC ATB combined with Example 10 @8 μg/ml ([2]; with Example 10 @8 μg/ml): >128 µg/mL | MIC ATB combined with Example 11 @8 μg/ml ([2]; with Example 11 @8 μg/ml): >128 µg/mL | MIC ATB combined with Example 12 @8 μg/ml ([2]; with Example 12 @8 μg/ml): >128 µg/mL | MIC ATB combined with Example 15 @4 μg/ml ([2]; with Example 15 @4 μg/ml): >128 µg/mL | MIC [3, 13]: 16 µg/mL | MIC ATB combined with Example 1 @8 μg/ml ([3]; with Example 1 @8 μg/ml): 32 µg/mL | MIC ATB combined with Example 3 @8 μg/ml ([3]; with Example 3 @8 μg/ml): 8 µg/mL | MIC ATB combined with Example 6 @8 μg/ml ([3]; with Example 6 @8 μg/ml): <=0.25 μg/mL | MIC ATB combined with Example 9 @4 μg/ml ([3]; with Example 9 @4 μg/ml): 16 µg/mL | MIC ATB combined with Example 10 @8 μg/ml ([3]; with Example 10 @8 μg/ml): 8 µg/mL | MIC ATB combined with Example 11 @8 μg/ml ([3]; with Example 11 @8 μg/ml): 16 µg/mL | MIC ATB combined with Example 12 @8 μg/ml ([3]; with Example 12 @8 μg/ml): 8 µg/mL | MIC ATB combined with Example 15 @4 μg/ml ([3]; with Example 15 @4 μg/ml): 16 µg/mL | MIC [4, 13]: > 128 µg/mL | MIC ATB combined with Example 1 @8 μg/ml ([4]; with Example 1 @8 μg/ml): >128 µg/mL | MIC ATB combined with Example 3 @8 μg/ml ([4]; with Example 3 @8 μg/ml): >128 µg/mL | MIC ATB combined with Example 6 @8 μg/ml ([4]; with Example 6 @8 μg/ml): <0.25 µg/mL | MIC ATB combined with Example 9 @4 μg/ml ([4]; with Example 9 @4 μg/ml): >128 µg/mL | MIC ATB combined with Example 10 @8 μg/ml ([4]; with Example 10 @8 μg/ml): >128 µg/mL | MIC ATB combined with Example 11 @8 μg/ml ([4]; with Example 11 @8 μg/ml): >128 µg/mL | MIC ATB combined with Example 12 @8 μg/ml ([4]; with Example 12 @8 μg/ml): >128 µg/mL | MIC ATB combined with Example 15 @4 μg/ml ([4]; with Example 15 @4 μg/ml): >128 µg/mL | MIC [5, 13]: > 128 µg/mL | MIC ATB combined with Example 1 @8 μg/ml ([5]; with Example 1 @8 μg/ml): >128 µg/mL | MIC ATB combined with Example 3 @8 μg/ml ([5]; with Example 3 @8 μg/ml): >128 µg/mL | MIC ATB combined with Example 6 @8 μg/ml ([5]; with Example 6 @8 μg/ml): <0.25 µg/mL | MIC ATB combined with Example 9 @4 μg/ml ([5]; with Example 9 @4 μg/ml): >128 µg/mL | MIC ATB combined with Example 10 @8 μg/ml ([5]; with Example 10 @8 μg/ml): >128 µg/mL | MIC ATB combined with Example 11 @8 μg/ml ([5]; with Example 11 @8 μg/ml): >128 µg/mL | MIC ATB combined with Example 12 @8 μg/ml ([5]; with Example 12 @8 μg/ml): >128 µg/mL | MIC ATB combined with Example 15 @4 μg/ml ([5]; with Example 15 @4 μg/ml): >128 µg/mL | MIC [6, 13]: > 128 µg/mL | MIC ATB combined with Example 1 @8 μg/ml ([6]; with Example 1 @8 μg/ml): 16 µg/mL | MIC ATB combined with Example 3 @8 μg/ml ([6]; with Example 3 @8 μg/ml): 8 µg/mL | MIC ATB combined with Example 6 @8 μg/ml ([6]; with Example 6 @8 μg/ml): <=0.25 μg/mL | MIC ATB combined with Example 9 @4 μg/ml ([6]; with Example 9 @4 μg/ml): 16 µg/mL | MIC ATB combined with Example 10 @8 μg/ml ([6]; with Example 10 @8 μg/ml): 8 µg/mL | MIC ATB combined with Example 11 @8 μg/ml ([6]; with Example 11 @8 μg/ml): 16 µg/mL | MIC ATB combined with Example 12 @8 μg/ml ([6]; with Example 12 @8 μg/ml): 8 µg/mL | MIC ATB combined with Example 15 @4 μg/ml ([6]; with Example 15 @4 μg/ml): 16 µg/mL | MIC [7, 13]: 128 µg/mL | MIC ATB combined with Example 1 @8 μg/ml ([7]; with Example 1 @8 μg/ml): 64 µg/mL | MIC ATB combined with Example 3 @8 μg/ml ([7]; with Example 3 @8 μg/ml): 32 µg/mL | MIC ATB combined with Example 6 @8 μg/ml ([7]; with Example 6 @8 μg/ml): 16 µg/mL | MIC ATB combined with Example 9 @4 μg/ml ([7]; with Example 9 @4 μg/ml): 32 µg/mL | MIC ATB combined with Example 10 @8 μg/ml ([7]; with Example 10 @8 μg/ml): 64 µg/mL | MIC ATB combined with Example 11 @8 μg/ml ([7]; with Example 11 @8 μg/ml): 64 µg/mL | MIC ATB combined with Example 12 @8 μg/ml ([7]; with Example 12 @8 μg/ml): 64 µg/mL | MIC ATB combined with Example 15 @4 μg/ml ([7]; with Example 15 @4 μg/ml): 32 µg/mL | MIC [8, 13]: 64 µg/mL | MIC ATB combined with Example 1 @8 μg/ml ([8]; with Example 1 @8 μg/ml): 64 µg/mL | MIC ATB combined with Example 3 @8 μg/ml ([8]; with Example 3 @8 μg/ml): 8 µg/mL | MIC ATB combined with Example 6 @8 μg/ml ([8]; with Example 6 @8 μg/ml): 16 µg/mL | MIC ATB combined with Example 9 @4 μg/ml ([8]; with Example 9 @4 μg/ml): 16 µg/mL | MIC ATB combined with Example 10 @8 μg/ml ([8]; with Example 10 @8 μg/ml): 16 µg/mL | MIC ATB combined with Example 11 @8 μg/ml ([8]; with Example 11 @8 μg/ml): 32 µg/mL | MIC ATB combined with Example 12 @8 μg/ml ([8]; with Example 12 @8 μg/ml): 8 µg/mL | MIC ATB combined with Example 15 @4 μg/ml ([8]; with Example 15 @4 μg/ml): 32 µg/mL | MIC [9, 13]: > 128 µg/mL | MIC ATB combined with Example 1 @8 μg/ml ([9]; with Example 1 @8 μg/ml): >128 µg/mL | MIC ATB combined with Example 3 @8 μg/ml ([9]; with Example 3 @8 μg/ml): >128 µg/mL | MIC ATB combined with Example 6 @8 μg/ml ([9]; with Example 6 @8 μg/ml): >128 µg/mL | MIC ATB combined with Example 9 @4 μg/ml ([9]; with Example 9 @4 μg/ml): >128 µg/mL | MIC ATB combined with Example 10 @8 μg/ml ([9]; with Example 10 @8 μg/ml): >128 µg/mL | MIC ATB combined with Example 11 @8 μg/ml ([9]; with Example 11 @8 μg/ml): >128 µg/mL | MIC ATB combined with Example 12 @8 μg/ml ([9]; with Example 12 @8 μg/ml): >128 µg/mL | MIC ATB combined with Example 15 @4 μg/ml ([9]; with Example 15 @4 μg/ml): >128 µg/mL | MIC [10, 13]: 2 µg/mL | MIC ATB combined with Example 1 @8 μg/ml ([10]; with Example 1 @8 μg/ml): 2 µg/mL | MIC ATB combined with Example 3 @8 μg/ml ([10]; with Example 3 @8 μg/ml): 1 µg/mL | MIC ATB combined with Example 6 @8 μg/ml ([10]; with Example 6 @8 μg/ml): 1 µg/mL | MIC ATB combined with Example 9 @4 μg/ml ([10]; with Example 9 @4 μg/ml): 1 µg/mL | MIC ATB combined with Example 10 @8 μg/ml ([10]; with Example 10 @8 μg/ml): 0.5 µg/mL | MIC ATB combined with Example 11 @8 μg/ml ([10]; with Example 11 @8 μg/ml): 1 µg/mL | MIC ATB combined with Example 12 @8 μg/ml ([10]; with Example 12 @8 μg/ml): 1 µg/mL | MIC ATB combined with Example 15 @4 μg/ml ([10]; with Example 15 @4 μg/ml): 2 µg/mL | MIC [11, 13]: 2 µg/mL | MIC ATB combined with Example 1 @8 μg/ml ([11]; with Example 1 @8 μg/ml): 2 µg/mL | MIC ATB combined with Example 3 @8 μg/ml ([11]; with Example 3 @8 μg/ml): 1 µg/mL | MIC ATB combined with Example 6 @8 μg/ml ([11]; with Example 6 @8 μg/ml): <0.25 µg/mL | MIC ATB combined with Example 9 @4 μg/ml ([11]; with Example 9 @4 μg/ml): 2 µg/mL | MIC ATB combined with Example 10 @8 μg/ml ([11]; with Example 10 @8 μg/ml): 2 µg/mL | MIC ATB combined with Example 11 @8 μg/ml ([11]; with Example 11 @8 μg/ml): 2 µg/mL | MIC ATB combined with Example 12 @8 μg/ml ([11]; with Example 12 @8 μg/ml): 2 µg/mL | MIC ATB combined with Example 15 @4 μg/ml ([11]; with Example 15 @4 μg/ml): 2 µg/mL
